Here are results for five compounds from US12053441B2, “Formulations for improving the delivery of hydrophobic agents” (THE ROYAL INSTITUTION FOR THE ADVANCEMENT OF LEARNING / …, priority 2018, dated 2024).

The procedure of data set [1]:
Solubilization studies. In order to link the surfactant properties of McC1 and its stimulating impact on UQ10 uptake, the solubilization characteristics of McC1 on UQ10 have been determined. First, solubilization test was performed by overnight shaking of a mixture of UQ10 and McC1 in water.
Additional solubilization tests were performed using sonication. Excess amount of UQ10 was mixed with McC1 by sonication for 2 min in water.
Like caspofungin/McC1, surfactin is a cyclic lipopeptide. It is produced from various strains of Bacillus subtilis. Structurally it consists of a peptide chain formed by seven amino acids linked to a β-hydroxyl fatty acid via a lactone bond. It is known for its exceptional surfactant power. […] Then, solubilization test was performed by overnight shaking of a mixture of UQ10 and surfactin in water. The mixture were subjected to brief centrifugation to separate undissolved UQ10 before absorbance of the resultant clear supernatant at 275 nm was measured spectrophotometrically.
Several other surfactants were tested for their ability to solubilize UQ. Briefly, excess amount of UQ10 was mixed with water solution of the tested surfactants using sonication. The resultant suspensions were then filtered through a 0.45 μm syringe filter to remove undissolved UQ10.

The test system of data set [2] is Pdss2/Mclk1 DKO cells. As to the kind of experiment: Oxygen consumption rate (OCR) by Seahorse XF analyzer. Type of data set: cell-based, mouse. As to the method:
Measurement of oxygen consumption by Seaborse XF analyzer. Cells were seeded in XF v7 24-well plates (Seahorse Bioscience) at ˜40,000 cells/well for 24 hr. Prior to the measurements, cell medium was replaced with Seahorse XF base medium supplemented with 5.5 mM glucose (Sigma Cat No G8769), 2 mM Glutamax (Thermo Fisher Cat No 35050061) and 1 mM sodium pyruvate and allowed to equilibrate for 1 hour at 37° C. Oxygen consumption was measured first under baseline condition, followed by subsequent addition of 1 μg/ml oligomycin (Sigma Cat No 04876), 0.8 μM FCCP (Sigma Cat No C2920) and a combination of 1 μM rotenone (Sigma Cat No R8875) and 5 μM antimycin A (Sigma Cat No A8674) to assess the basal and maximal mitochondrial respiration rates. Four baseline measurements were recorded before the consecutive addition of the above-mentioned compounds, and three response measurements were taken after the addition of each compound. Results were finally normalized to protein content determined using the Bradford reagent (Bio-Rad). For experiments that involved culturing cells in the presence of lipoprotein-deficient serum (LPDS), cells were grown in culture medium supplemented with LPDS (Sigma S5394) for 1 week before OCR was measured using a Seahorse XF-24 extracellular flux analyzer as described above.

The subject of data set [3] is mitochondria of Pdss2/Mclk1 DKO MEFs. As to the kind of experiment: UQ levels in mitochondrial extracts. Type of data set: cell-based, mouse. The conditions noted are these: in combination with UQ10, vs UQ10 alone. The text has this: (§1) FIGS. 7A to 7D present exemplary data showing that McC1 is capable of increasing the uptake of exogenous UQ into cells and mitochondria. (A) Bar chart showing change of UQ10 levels (as measured in ng/μg of protein) in Pdss2/Mclk1 DKO MEFs after treatment with UQ10, McC1 alone, or UQ10 and McC1 in combination. **p<0.01, ***p<0.001 (one-way ANOVA). (B) Bar charts presenting exemplary data showing changes of UQ levels in wildtype MEFs after treatment with UQ10, McC1 alone, or both in combination. Results are shown as cellular UQ10 levels (as provided in ng/μg of protein, left panel) or UQ9 levels (as provided in ng/μg of protein, right panel) in untreated cells, after treatment with 12.5 μM of McC1, after treatment with 2.5 μM of UQ10, or after co-treatment UQ10 and McC1. Results are mean±SEM (n=3). ****p<0.0001 (one-way ANOVA). (C) Bar chart presenting exemplary data showing changes of UQ10 and UQ9 levels in mitochondrial extracts from wildtype MEFs after treatment with UQ10 alone, or in combination with McC1. Results are shown as UQ9 and UQ10 levels in ng/μg of protein. Results are mean±SEM (n=3). ****p<0.0001 (student's t-test). (D) Bar chart presenting exemplary data showing changes of UQ10 level in mitochondrial extracts from Pdss2/Mclk1 DKO MEFs after treatment with UQ10 alone, or in combination with McC1. Results are shown as UQ10 levels (as provided in ng/μg of protein) in untreated DKO cells, after treatment with 2.5 μM of UQ10, or after co-treatment 2.5 μM of UQ10 and 12.5 μM of McC1. ND: Not Detectable. Results are mean±SEM (n=3). ****p<0.0001 (one-way ANOVA).
(§2) Quantification of quinones. Quinone content was detected and quantified by HPLC as previously described. […] After centrifugation for 5 min at 8,000×g, the hexane layer was collected and evaporated in a vacuum centrifuge. The quinone residue was then dissolved in ethanol and stored at −20° C. until HPLC analysis. The HPLC analysis was performed on a reverse phase C18 column (25.0×0.46 cm, 5 μm, Highchrom) using UV detection at 275 nm (Beckman System Gold). The mobile phase was methanol/ethanol (70:30 v/v) and isocratic elution was used at a flow rate of 1.8 ml/min.

Data set [4] has as its system mitochondria of wild-type MEFs. Briefly: UQ levels in mitochondrial extracts. In kind it is cell-based, mouse. The conditions noted are these: in combination with UQ10, vs UQ10 alone.
Excerpt: as §1, §2

In data set [5] the test system is Pdss2/Mclk1 DKO cells. As to the kind of experiment: Viability in glucose-free galactose-containing medium (resazurin reduction assay). In kind it is cell-based, mouse. The protocol: Tissue culture and viability assays. […] Cell viability was determined by resazurin (Sigma Cat No R7017) reduction assay or crystal violet staining following standard procedures.
(§3) The resazurin cell viability assay. Briefly, resazurin was added directly to plates at 1/10 the volume of glucose culture medium. Viable cells with active metabolism can reduce resazurin into resorufin which causes a colour change from blue to pink. After a 2 hr incubation, plates were read on a plate reader (Tecan) to record absorbance at 570 nm and 600 nm. The cell viability was scored as a percentage relative to the signal from untreated glucose-grown wells. Consequently, each screened compound may be described by its effect (no, partial or full rescue) on survival of the KO cells in galactose medium.
The screen also uses cells lacking UQ biosynthesis (e.g., DKO cells) and its protocol is essentially the same as the galactose-only screen except that in step 2, a minimal amount of UQ10 is added into the galactose screening media at a concentration at which the added UQ10 is insufficient by itself to support survival.

For the next data set, the system named is Pdss2/Mclk1 DKO MEFs. Briefly: Cellular UQ10 levels (quinone quantification by HPLC). In kind it is cell-based, mouse. As to the method: as §2
For a further data set, the system named is wildtype MEFs. The data set is described as above. Type of data set: cell-based, mouse. As to the method: as §2
Data set [6] in a line: Drop collapse assay (surfactant activity). Type of data set: physicochemical. As to the method: Drop collapse assay is a simple detection method of surface active agents. It relies on the capacity of surfactants to destabilize the liquid droplets on an oily surface. The drop-collapsing ability of McC1 along with other known potent surfactants was characterized. For each, 40 ul of compound solution in water was pipetted onto a hydrophobic Parafilm surface and the diameter of the drops was measured 1 min later using a ruler.

Data set [7] deals with mouse embryonic fibroblasts (MEFs). As to the kind of experiment: Effect of PTX/McC1 micelles on cell growth and survival (resazurin reduction assay). Type of data set: cell-based. The conditions noted are these: 2 to 6 days exposure (FIG. 26B). As to the method:
To evaluate the antiproliferative activity of PTX/McC1 micelles, we seeded exponentially growing mouse embryonic fibroblasts (MEFs) into 48-well plates, exposed them to PTX/McC1 micelles for 2 to 6 days, and determined the treatment effect on cell growth and survival by comparing the numbers of variable cells before and after the treatment.
Cells were allowed to attach overnight and then the PTX/McC1 solution was added into the culture media to obtain the desired concentrations. After 2 days' treatment, the standard resazurin reduction assay was used to evaluate cell growth and survival.

The subject of another data set is human Hela cells. As to the kind of experiment: Cellular UQ10 levels (quinone quantification by HPLC). In kind it is cell-based. The conditions noted are these: 1 hour treatment, human cells (FIG. 15).
Excerpt: (A) UQ levels in wild-type MEFs after treatment with McC1-solubilized form of UQ10. (B) UQ levels in human Hela cells after treatment with McC1-solubilized form of UQ10. Results are shown as the levels of UQ9 (white bars, measured as ng/mg of protein) or UQ10 (black bars, measured as ng/mg of protein) in control conditions (+None), after treatment with a formulation containing McC1-solubilized form of UQ10, or in the presence of UQ10 only (+UQ10). For the 2 treatment conditions in A, the final UQ10 concentrations in the media were the same—2.5 μM. In B, the final UQ10 concentrations in the media were 8 μM for the two treatment conditions. Values are mean±SEM (n=2). ****p<0.0001 (one-way ANOVA).
as §2

A further data set deals with Mclk1 KO cells. Briefly: Viability in glucose-free galactose-containing medium (resazurin reduction assay). In kind it is cell-based, mouse. As to the method:
Tissue culture and viability assays. […] To score growth and viability in galactose, cells were first grown in high glucose DMEM medium to confluency and then switched to glucose-free DMEM media (Thermo Fisher Cat No 26400036) supplemented with 10 mM galactose (Sigma Cat No G5388), 1 mM sodium pyruvate (Thermo Fisher Cat No 11360070), 10% dialyzed FBS (Thermo Fisher Cat No 26400036) and 1% antibiotic-antimycotic solution. Cell viability was determined by resazurin (Sigma Cat No R7017) reduction assay or crystal violet staining following standard procedures.
The screen uses cells lacking UQ (e.g., Mclk1 KO cells) and consists of three key steps: • 1) Day 0: preparation of Mclk1 KO cells in 96-well plates in standard (glucose-containing) culture medium. • 2) Day 1: changing to glucose-free galactose-containing medium and adding compounds to be screened at a concentration of approximately 10 μM. • 3) Day 4 to 6: following 3 to 5 days of incubation with the compound to be screened, media were removed and cell viability was assayed by resazurin reduction assay.
as §3

Data set [8] can be described thus: Solubilization of paclitaxel (PTX) in water. To be noted: FIG. 25.
Method: (A) Bar graph showing a concentration of soluble PTX in 4 mM McC1 solution. After mixing PTX and McC1 solution, the undissolved residues were removed by filtration through a 0.22 μm pore-size membrane. For determination of the PTX concentration, absorbance at 230 nm was measured and compared to a standard curve generated for known concentrations of PTX in pure methanol.
For a further data set, the system named is cells. As to the kind of experiment: Cellular UQ measurements after treatment with micellar UQ10 solutions (FIG. 22). Type of data set: cell-based. The conditions noted are these: UQ10 solution prepared with the surfactant, 6 μM UQ10, 1-day. The text has this:
UQ levels are expressed as ng per mg of protein (mean±SEM). Each bar represents the average of 2 to 3 independent measurements. […] ND: not detected. #p<0.0001 (vs. untreated controls; two-way ANOVA followed by Dunnett's multiple comparison test).

Data set [9] can be described thus: Solubilization of curcumin in water. In kind it is physicochemical. The text has this: It is important to note that in contrast with the other surfactants tested, McC1 is non-toxic and can be used in intravenous injection.
[10] abbreviates: in combination with UQ10, vs UQ10 alone.

`CC[C@H](C)C[C@H](C)CCCCCCCCC(=O)N[C@H]1C[C@@H](O)[C@@H](NCCN)NC(=O)[C@@H]2[C@@H](O)CCN2C(=O)[C@H]([C@H](O)CCN)NC(=O)[C@H]([C@H](O)[C@@H](O)c2ccc(O)cc2)NC(=O)[C@@H]2C[C@@H](O)CN2C(=O)[C@H]([C@@H](C)O)NC1=O` [McC1, Caspofungin]: the “increase in aqueous solubility of UQ10” value in [1] is given as “more than 1,200,000 fold”. For the same compound, the “water solubility of UQ10 in the presence of the compound” value in [1] is given as “greatly increased”. The “mitochondrial respiration (OCR) compared with UQ10 treatment alone” value in the data set on Pdss2/Mclk1 DKO cells [2] (co-treatment with UQ10) is “greater increase of mitochondrial respiration”. Moreover, the “uptake of exogenous UQ10 into mitochondria” value in data set [3] and in data set [4] was “significantly increased uptake of exogenous UQ10 into mitochondria” in each case. Also, the “survival of DKO cells in galactose medium” value is listed as “no effect” with Pdss2/Mclk1 DKO cells [5] (compound by itself, no UQ10 added) and “able to rescue the mutant cells from death” in the data set on Pdss2/Mclk1 DKO cells [5] (in the presence of a minimal amount of UQ10). Besides, the “intracellular concentration of UQ” value in the data set with Pdss2/Mclk1 DKO MEFs (compound used alone) and in the data set with wildtype MEFs (compound used alone) was “no effect” throughout. Besides, the “cellular uptake of exogenous UQ10” value in the data set with Pdss2/Mclk1 DKO MEFs (setting [10]) and in the data set with wildtype MEFs (setting [10]) was “increased uptake of exogenous UQ10 into cells” each time. For the same compound, the “surfactant (drop collapse) activity” value in [6] was “moderate surfactant activity”. In data set [7], the “effect on cell growth and survival” value is “no observable toxicity”.
`COC1=C(OC)C(=O)C(C/C=C(\C)CC/C=C(\C)CC/C=C(\C)CC/C=C(\C)CC/C=C(\C)CC/C=C(\C)CC/C=C(\C)CC/C=C(\C)CC/C=C(\C)CCC=C(C)C)=C(C)C1=O` [UQ10, ubiquinone-10]: the “soluble UQ10 in the water-only control” value in [1] is on record as “no detectable soluble UQ10”. Moreover, the “cellular UQ10 levels” value is “no effect on intracellular UQ10 levels” with human Hela cells and “no effect on intracellular UQ10 levels” with wildtype MEFs (1 hour treatment, mouse cells (FIG. 15)). In addition, the “rates of mitochondrial respiration” value in the data set with Pdss2/Mclk1 DKO cells [2] (UQ10 at sufficient doses, Mclk1 SKO and Pdss2/Mclk1 DKO cells) is reported as “increases rates of mitochondrial respiration”. For the same compound, the “rescue from galactose-induced cell death by UQ supplementation” value in the data set with Pdss2/Mclk1 DKO cells [5] (if provided at a sufficient amount) is “sufficient to rescue them from galactose-induced cell death”. The “survival of Mclk1 KO cells in galactose medium” value in the data set on Mclk1 KO cells (UQ10 0.5 μM (FIG. 3C)) is given as “little effect”; in the data set on Mclk1 KO cells (UQ10 10 μM (FIG. 3C)), “almost full rescue”.
For `CC(=O)O[C@H]1C(=O)[C@@]2(C)[C@H]([C@H](OC(=O)c3ccccc3)[C@]3(O)C[C@H](OC(=O)[C@H](O)[C@@H](NC(=O)c4ccccc4)c4ccccc4)C(C)=C1C3(C)C)[C@]1(OC(C)=O)CO[C@@H]1C[C@@H]2O` [PTX, Paclitaxel], the “solubility of PTX in water-only control” value in data set [8] was “not soluble in water”.
For `CCCCCCCCCCCCCC[N+](C)(C)C.[Br-]` [TTAB, Tetradecyl trimethyl ammonium bromide], the “cellular uptake of UQ10 compared to adding UQ10 alone” value in the data set with cells is recorded as “increased cellular uptake of UQ10”.
Consider `COc1cc(/C=C/C(=O)CC(=O)/C=C/c2ccc(O)c(OC)c2)ccc1O` [curcumin], for which the “solubility of free curcumin in water” value in data set [9] is given as “very low solubility in water”.
